Key:
freely moving rats = experiment: Hot-plate (hind-paw withdrawal) latency (HPL), Hargreaves's test, morphine 10 mg/kg; type: in vivo, rat; settings: morphine 10 mg/kg IV in vehicle-treated rats
adult male rats = experiment: Hargreaves Hind-paw Latency Test, morphine 1 mg/kg; type: in vivo, rat; settings: given alone, morphine sulfate 1 mg/kg IV
rats = experiment: Sedation observation in morphine-treated rats; settings: morphine 10 mg/kg IV plus vehicle

With `CN1CC[C@]23c4c5ccc(O)c4O[C@H]2[C@@H](O)C=C[C@H]3[C@H]1C5` [Morphine, morphine] the “duration of the increase in HPL” value (freely moving rats) was “at least 4 h”, the “Hargreaves hind-paw withdrawal latency” value (adult male rats; D-cystine diME 500 μmol/kg IV, FIG. 26 study) was 16.3 ± 1.8 s and the “Hargreaves hind-paw withdrawal latency” value (adult male rats; L-cystine diME 500 μmol/kg IV, FIG. 24 study) was 19.5 ± 0.4 s. For the same compound, the “time for which full mobility was not evident” value (rats) was “at least 2 h”.

— patent publication US12083089B2, “Compositions and methods for stimulating ventilatory and/or respiratory drive” (CASE WESTERN RESERVE UNIVERSITY, priority 2015, dated 2024)
